In patent US20240239788A1, “SMALL MOLECULE INHIBITORS OF KRAS G12D MUTANT” (Merck Sharp & Dohme LLC, priority 2021, published 2024):
Where a name gives a salt, the structure may show the parent alone. Read-outs that look alike come from different tables or passages of the source.

Tests used:
[1] = molecular target: KRAS protein containing G12D mutation (Homo sapiens (Human), UniProt P01116, G12D); test: SOS-catalyzed nucleotide exchange assay (GNE), TR-FRET; format: biochemical; conditions: biotinylated KRAS G12D, SOS and GTP, 60-minute incubation
Experimental: Compounds are added to this complex and then after a 60-minute incubation time the mixture is treated with SOS and unlabeled GTP. Small molecule inhibitors stabilize the Bodipy-GDP complex whereas the untreated protein rapidly exchanges Bodipy-GDP for unlabeled GTP resulting in reduced TR-FRET signal.
This solution is referred to as biotinylated KRAS G12D stock solution.

[2] = system: AsPC-1 cells containing homozygous KRAS-G12D activating mutation; test: Cellular phospho-ERK assay with 10% FBS (Examples 107a-256); format: cell-based
Experimental: 5% CO2 for 2 hours. […] Assay plates were read on a EnVision Multimode Plate Reader (PerkinElmer) and the ratio of p-Erk vs total Erk in each well was used as the final readout.

[3] = read-out: IC50 (nM) pERK (cell with FBS 10%), AsPC-1 cells, 10% fetal bovine serum, 2 hours, ratio of p-Erk vs total Erk
[4] = Homo sapiens, ASPC1, 2 h, read-out: IC50 (nM) pERK (cell with FBS 10%), AsPC-1 cells, 10% fetal bovine serum, 2 hours, ratio of p-Erk vs total Erk
[5] = read-out: IC50 (nM) pERK (cell with FBS 10%), AsPC-1 cells, 10% fetal bovine serum, 2 hours, ratio of p-Erk vs total Erk, TFA

Chain of KRAS protein containing G12D mutation (P01116 other isoform, or with tags, fused parts or gaps G12D (already in the parent)): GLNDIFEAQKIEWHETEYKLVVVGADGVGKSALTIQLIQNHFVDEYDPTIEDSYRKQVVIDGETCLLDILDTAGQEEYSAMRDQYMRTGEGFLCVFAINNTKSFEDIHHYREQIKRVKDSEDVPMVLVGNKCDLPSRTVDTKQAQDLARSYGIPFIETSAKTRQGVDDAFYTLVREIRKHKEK

Row | Compound | IC50 [1] | IC50 [2, 3] | IC50 [2, 4] | IC50 [2, 5]
1 | C[C@]12CCC(CN(c3nc(OC[C@]4(CN[C@@H]5CC[C@H](O)C5)CC4(F)F)nc4c(F)c(-c5cc(O)cc6cccc(Cl)c56)c(F)cc34)C1)N2 (single isomer, unassigned) [Ex. 219a] | 3.27 nM | 1250 nM | – | –
2 | C[C@]12CCC(CN(c3nc(OC[C@]4(CN[C@@H]5CC[C@H](O)C5)CC4(F)F)nc4c(F)c(-c5cc(O)cc6cccc(Cl)c56)c(F)cc34)C1)N2 (single isomer, unassigned) [Ex. 219b] | 627 nM | 9380 nM | – | –
3 | CN(C[C@@]1(COc2nc(N3CC4CC[C@@](C)(C3)N4)c3cc(F)c(-c4cc(O)cc5cccc(Cl)c45)c(F)c3n2)CC1(F)F)C1COC1 (single isomer, unassigned) [Ex. 220] | 470 nM | – | 7830 nM | –
4 | COCCOCC1CCN(C[C@@]2(COc3nc(N4CC5CC[C@@](C)(C4)N5)c4cc(F)c(-c5c(C(F)(F)F)c(C)cc6[nH]ncc56)c(F)c4n3)CC2(F)F)C1 (single isomer, unassigned) [Ex. 222] | 8.84 nM | – | 2880 nM | –
5 | Cc1cc2[nH]nc(C#N)c2c(-c2c(F)cc3c(N4C[C@H]5CC[C@@H](C4)N5)nc(OC[C@@]45CCCN4C[C@H](F)C5)nc3c2F)c1C(F)(F)F (single isomer, unassigned) [Ex. 227a] | 190 nM | 1520 nM | – | –
6 | C[C@]12CCC(CN(c3nc(OC[C@@]45CCCN4C[C@H](F)C5)nc4c(F)c(-c5cc(O)cn6ncc(Cl)c56)c(F)cc34)C1)N2 (single isomer, unassigned) [Ex. 230a, TFA] | 30.9 nM | – | – | 1450 nM
7 | C[C@]12CCC(CN(c3nc(OC[C@@]45CCCN4C[C@H](F)C5)nc4c(F)c(-c5cc(O)cn6ncc(Cl)c56)c(F)cc34)C1)N2 (single isomer, unassigned) [Ex. 230b, TFA] | 162 nM | – | – | 9100 nM
8 | Nc1cc(-c2c(F)cc3c(N4CC5CCC(C4)N5)nc(OC[C@@]45CCCN4C[C@H](F)C5)nc3c2F)c2c(Cl)cccc2n1 (single isomer, unassigned) [Ex. 231a] | 1490 nM | 9300 nM | – | –
9 | Nc1cc(-c2c(F)cc3c(N4CC5CCC(C4)N5)nc(OC[C@@]45CCCN4C[C@H](F)C5)nc3c2F)c2c(Cl)cccc2n1 (single isomer, unassigned) [Ex. 231b] | 38.4 nM | 326 nM | – | –
10 | Cc1cc2[nH]nc(C)c2c(-c2c(F)cc3c(N4CC5CCC(C4)N5)nc(OC[C@@]45CCCN4C[C@H](F)C5)nc3c2F)c1OC(F)(F)F (single isomer, unassigned) [Ex. 232a] | 932 nM | 30000 nM | – | –
11 | Cc1cc2[nH]nc(C)c2c(-c2c(F)cc3c(N4CC5CCC(C4)N5)nc(OC[C@@]45CCCN4C[C@H](F)C5)nc3c2F)c1OC(F)(F)F (single isomer, unassigned) [Ex. 232b] | 5.9 nM | 155 nM | – | –
12 | Oc1cc(Cl)c(C(F)(F)F)cc1-c1c(F)cc2c(N3CC4CCC(C3)N4)nc(OC[C@@]34CCCN3C[C@H](F)C4)nc2c1F (single isomer, unassigned) [Ex. 256] | 246 nM | – | 5870 nM | –
13 | C[C@]12CC[C@H](CN(c3nc(OCC45CCCN4CCC(F)(F)C5)nc4c(F)c(-c5cc(O)cc6cccc(Cl)c56)c(F)cc34)C1)N2 (single isomer, unassigned) [Example 116b] | 473 nM | – | 14000 nM | –
14 | Cc1cc2[nH]ncc2c(-c2c(F)cc3c(N4CC5CCC(C4)N5)nc(OC[C@@]45CCCN4C[C@H](F)C5)nc3c2F)c1OC(F)(F)Cl (single isomer, unassigned) [compound 253] | 1.74 nM | – | 111 nM | –
15 | C[C@]12CCC(CN(c3nc(OCC45CCCN4CC(F)C5)nc4c(F)c(-c5nc(N)cc6cccc(Cl)c56)c(F)cc34)C1)N2 (stereo in doubt) [Ex. 131, 8-chloro-1-(6,8-difluoro-2-(((2S,7aR)-2-fluorotetrahydro-1H-pyrrolizin-7a(5H)-yl)methoxy)-4-((1S,5R)-1-methyl-3,8-diaza-bicyclo[3.2.1]octan-3-yl)quinazolin-7-yl) isoquinolin-3-amine] | 188 nM | – | 6980 nM | –
16 | CN(C)C[C@@]1(COc2nc(N3C[C@H]4CC[C@@](C)(C3)N4)c3cc(C#N)c(-c4cc(O)cc5ccccc45)c(F)c3n2)CC1(F)F [136b, 2-(((R)-1-((dimethylamino)methyl)-2,2-difluorocyclopropyl)methoxy)-8-fluoro-7-(3-hydroxynaphthalen-1-yl)-4-((1S,5R)-1-methyl-3,8-diazabicyclo[3.2.]octan-3-yl)quinazoline-6-carbonitrile] | 32.4 nM | 2380 nM | – | –
17 | C#Cc1cccc2c(F)c(O)cc(-c3c(F)cc4c(N5C[C@H]6CC[C@@](C)(C5)N6)nc(OC[C@@]56CCCN5C[C@H](F)C6)nc4c3F)c12 [202a, 4-(6,8-difluoro-2-(((2R,7aS)-2-fluorotetrahydro-1H-pyrrolizin-7a(5H)-yl)methoxy)-4-((1.5R)-1-methyl-3,8-diazabicyclo[3.2.1]octan-3-yl)quinazolin-7-yl)-5-ethynyl-1-fluoronaphthalen-2-ol] | 302 nM | 11500 nM | – | –
18 | C#Cc1cccc2c(F)c(O)cc(-c3c(F)cc4c(N5C[C@H]6CC[C@@](C)(C5)N6)nc(OC[C@@]56CCCN5C[C@H](F)C6)nc4c3F)c12 [202b, 4-(6,8-difluoro-2-(((2R,7aS)-2-fluorotetrahydro-1H-pyrrolizin-7a(5H)-yl)methoxy)-4-((1S,5R)-1-methyl-3,8-diazabicyclo[3.2.1]octan-3-yl)quinazolin-7-yl)-5-ethynyl-1-fluoronaphthalen-2-ol] | 3.94 nM | – | 302 nM | –
19 | C[C@]12CCC(CN(c3nc(OC[C@H]4CC[C@@]5(CO)CCCN45)nc4c(F)c(-c5cc(O)cc6cccc(Cl)c56)c(F)cc34)C1)N2 [243a, 5-chloro-4-(6,8-difluoro-2-(((38,7aS)-7a-(hydroxymethyl)hexahydro-1H-pyrrolizin-3-yl)methoxy)-4-((1S,5R)-1-methyl-3,8-diazabicyclo[3.2.1]octan-3-yl)quinazolin-7-yl)naphthalen-2-ol] | 346 nM | – | 30000 nM | –
20 | CN(C)CC1(COc2nc(N3C[C@H]4CC[C@@](C)(C3)N4)c3cc(F)c(-c4cc(O)cc5ccccc45)c(F)c3n2)CC1C(=O)O (stereo partly drawn) [Ex. 107, 2-(((6,8-difluoro-7-(3-hydroxynaphthalen-1-yl)-4-((1S,5R)-1-methyl-3,8-diazabicyclo[3.2.1]octan-3-yl)quinazolin-2-yl)oxy)methyl)-2-((dimethylamino)methyl)cyclopropane-1-carboxylc acid] | 25.4 nM | 30000 nM | – | –
21 | Cc1cc2[nH]nc(C)c2c(-c2c(F)cc3c(N4C[C@H]5CC[C@@H](C4)N5)nc(OCC4(CN5CCOCC5)CC4)nc3c2F)c1OC(F)F [Ex. 127, 4-((1-(((4-((1R,5S)-3,8-diazabicyclo[3.2.1]octan-3-yl)-7-(5-(difluoromethoxy)-3,6-dimethyl-1H-indazol-4-yl)-6,8-difluoroquinazolin-2-yl)oxy)methyl)cyclopropyl)methyl) morpholine] | 39 nM | – | 3600 nM | –
22 | Nc1cc2cccc(Cl)c2c(-c2c(F)cc3c(N4C[C@H]5CC[C@@H](C4)N5)nc(OC[C@@]45CCCN4C[C@H](F)C5)nc3c2F)n1 [Ex. 132, 1-(4-((1R,5S)-3,8-diazabicyclo[3.2.1]octan-3-yl)-6,8-difluoro-2-(((2R,7aS)-2-fluorotetrahydro-1H-pyrrolizin-7a(5H)-yl)methoxy)quinazolin-7-yl)-8-chloroisoquinolin-3-amine] | 347 nM | – | 5580 nM | –
23 | Nc1cnc(C(F)(F)F)c(-c2c(F)cc3c(N4C[C@H]5CC[C@@H](C4)N5)nc(OC[C@@]45CCCN4C[C@H](F)C5)nc3c2F)n1 [Ex. 134, 6-(4-((1R,5S)-3,8-diazabicyclo[3.2.1]octan-3-yl)-6,8-difluoro-2-(((2R,7aS)-2-fluorotetrahydro-1H-pyrrolizin-7a(5H)-yl)methoxy)quinazolin-7-yl)-5-(trifluoromethyl)pyrazin-2-amine] | 870 nM | – | 13600 nM | –
24 | Cc1nc(N)nc(-c2c(F)cc3c(N4C[C@H]5CC[C@@H](C4)N5)nc(OC[C@@]45CCCN4C[C@H](F)C5)nc3c2F)c1C(F)(F)F [Ex. 135, 4-(4-((1R,5S)-3,8-diazabicyclo[3.2.1]octan-3-yl)-6,8-difluoro-2-(((2R,7aS)-2-fluorotetrahydro-1H-pyrrolizin-7a(5H)-yl)methoxy)quinazolin-7-yl)-6-methyl-5-(trifluoromethyl)pyrimidin-2-amine] | 54.6 nM | – | 469 nM | –
25 | CN(C)C[C@@]1(COc2nc(N3C[C@H]4CC[C@@](C)(C3)N4)c3cc(C#N)c(-c4cc(O)cc5ccccc45)c(F)c3n2)CC1(F)F [Ex. 136a, 2-(((R)-1-((dimethylamino)methyl)-2,2-difluorocyclopropyl)methoxy)-8-fluoro-7-(3-hydroxynaphthalen-1-yl)-4-((1S,5R)-1-methyl-3,8-diazabicyclo[3.2.]octan-3-yl)quinazoline-6-carbonitrile] | 4.93 nM | 645 nM | – | –
26 | Cc1cc2[nH]ncc2c(-c2c(F)cc3c(N4CC5CCC(C4)N5)nc(OC[C@@]45CCCN4C[C@H](F)C5)nc3c2F)c1C(F)(F)F [Ex. 140, 4-((1R,5S)-3,8-diazabicyclo[3.2.1]octan-3-yl)-6,8-difluoro-2-(((2R,7aS)-2-fluorotetrahydro-1H-pyrrolizin-7a(5H)-yl)meth-oxy)-7-(6-methyl-5-(trifluoromethyl)-1H-indazol-4-yl)quin-azoline, TFA] | 3.88 nM | – | 113 nM | –
